Assay results published in paper PMC12346480, “The Pharmacokinetic and Pharmacodynamic Relationship of Clinically Used Antiseizure Medications in the Maximal Electroshock Seizure Model in Rodents” (International Journal of Molecular Sciences, 2025).
Read-outs that look alike come from different tables or passages of the source.

Columns and labels:
MES-induced seizures [1] = experiment: animal or person; assay type: in vivo
Description: (§1) Animals were group-housed (2–4 mice or 3–4 rats per cage) in plastic cages and maintained under controlled temperature (18–25 °C), humidity, ventilation, and lighting (12 h light/dark cycle). They had free access to water and Certified Rodent Chow (Teklad Rodent Chow). Upon arrival, the animals were examined to ensure good health status and were acclimated to the facility for at least 5 days before being subjected to the MES protocol. All experiments were conducted in accordance with guidelines set by the Canadian Council on Animal Care and approved by the Xenon Animal Care Committee.
(§2) Drugs were administered by the intraperitoneal route (IP; dissolved in sterile saline) or oral route (PO; dissolved in 0.5% methylcellulose + 0.2% Tween 80 in DI water) in a volume of 10 mL/kg. Control animals received the appropriate vehicle. The doses and pre-treatment times for each drug, detailed in Table 2, were determined based on in-house data or, in some cases, from the publicly available PANACHE database.
(§3) The MES assay is widely used in the search for anticonvulsant substances. This animal model for generalized tonic–clonic seizures assesses a compound’s ability to prevent seizure spread. […] Before the electroshock stimulation, the eyes were anesthetized with a topical application of 0.5% proparacaine hydrochloride (one drop per eye). Animals were then restrained; the corneal electrodes were applied, and the shock was administered. An MES-induced seizure was characterized by an initial generalized tonic seizure with a hindlimb tonic extensor component.
(§4) The protocols for administering PO or IP doses of the vehicle or drug are described in […]. These doses were administered 0.5–2 h before the application of electric stimulation. An animal was considered protected from MES-induced seizures if the hindlimb tonic extensor component of the seizure was abolished, and it was scored as “0”. […] Seizure induction and scoring were performed by an experimenter who was blinded to treatment conditions.
(§5) After being subjected to the stimulation protocol, rodents were anesthetized by isoflurane inhalation until they reached a surgical plane of anesthesia. Approximately 0.5 mL of blood was collected via cardiac puncture and transferred to EDTA-coated tubes on ice. Animals were then euthanized by cervical dislocation, and their brains were removed, weighed, and immediately frozen on dry ice. At the end of sample collection, blood was centrifuged at 4000 rpm for 10 min at 4 °C, and the plasma was separated. All samples were stored at −80 °C until the time of bioanalysis.
(§6) Plasma samples were extracted for analysis using a protein precipitation method with acetonitrile. A total of 50 µL of diluted plasma samples was mixed with 50 µL of an internal standard (IS) solution in a 1:1 mixture of acetonitrile and water. A total of 200 µL of acetonitrile was then added to the mixture, which was vortexed for 30 s. The samples were centrifuged at 13,000 rpm for 20 min, decanted into a 96-well plate, and further centrifuged at 4000 rpm for 20 min. The samples were then analyzed using ultra-high-performance electrospray ionization tandem mass spectrometry (UHPLC-ESI-MS/MS).
(§7) Brains were homogenized in a 1:1 mixture of acetonitrile and water (2 mL per mouse brain) using the T18 ULTRA-TURRAX (IKA, Staufen im Breisgau, Germany) homogenizer for about 1 min. The homogenate was centrifuged at 13,000 rpm for 20 min, and 50 µL of the supernatant was treated in the same way as the plasma samples for analysis.
(§8) At 1.5 min, the mobile phase composition was switched back to 50% B at 1.6 min and then held at 50% B until 2.5 min. The flow rate used throughout the experiment was 0.4 mL/min. […] Each compound was matched with a proprietary co-eluting internal standard. The UHPLC-ESI MS/MS system was controlled, and samples were quantified using Analyst 1.6.

MES-induced seizures [2] = experiment: Alternating current maximal electroshock seizure assay (AC-MES) in rats with plasma and brain exposure; assay type: in vivo, Sprague-Dawley rats; conditions: for ED50: single PO dose, pre-treatment 0.5-2 h per Table 2, read-out: ED50 (median effective dose)
Description: as §1, §2, §3, §4, §5, §6, §7, §8

in vivo [3] = conditions: CF-1, mouse
Description: as §5, §6, §7, §8

in vivo [4] = conditions: Sprague-Dawley, rat
Description: as §5, §6, §7, §8

[5] = Plasma protein binding, rat; conditions: Xenon in-house data
Description: (§9) PPB data is available in Supplemental Table S1.
(§10) Supplemental Table S1. Summary of effective plasma concentrations, plasma protein binding (PPB), and unbound plasma concentrations (Cp,u) for the ASMs tested in mice, rats and humans.
(§11) *For mouse and rat, plasma EC50 from the MES assay at one time point after a single dose is shown. For human, literature-reported therapeutic plasma concentrations are shown. […]
(§12) mouse, for which published data were used. For human, published data is shown.
(§13) *** Cp,u values for rodents have been calculated based on MES EC50. Cp,u values for humans represent the lower and upper bounds of reported therapeutic plasma concentrations, adjusted for PPB, as reported in clinical pharmacokinetic

MES-induced seizures [6] = experiment: animal or person; assay type: in vivo; conditions: mouse MES; single dose, route and pre-treatment time per Table 2 (PO or IP, 0.25-2 h); read-out: ED50 (median effective dose)
[7] = mouse plasma, cited from earlier work
[8] = human plasma; published data ref 36-47; cited from earlier work
[9] = human, cited from earlier work; for Effective plasma concentration: literature-reported therapeutic plasma concentrations ref 36-47; for Cp,u (unbound therapeutic plasma concentration): lower and upper bounds of therapeutic plasma concentrations adjusted for PPB ref 36-47
[10] = Plasma protein binding, mouse; conditions: Xenon in-house data
Description: as §9, §10, §11, §12, §13

[11] = set-up: method as in earlier work; conditions: rat plasma; published data ref 34; cited from earlier work
[12] = mouse MES, brain concentration for 50% probability of seizure protection, read-out: EC50 Brain
[13] = mouse MES, plasma concentration for 50% probability of seizure protection, one time point after single dose, read-out: EC50 Plasma
[14] = mouse, calculated based on MES EC50 and PPB, read-out: Cp,u EC50 (unbound plasma concentration)
[15] = Rattus norvegicus, read-out: Cp,u EC50 (unbound plasma concentration)
[16] = Rattus norvegicus, read-out: EC50 Brain
[17] = Rattus norvegicus, read-out: EC50 Plasma
[18] = rat MES, brain concentration for 50% probability of seizure protection, read-out: EC50 Brain
[19] = rat MES, plasma concentration for 50% probability of seizure protection, one time point after single dose, read-out: EC50 Plasma
[20] = rat, calculated based on MES EC50 and PPB, read-out: Cp,u EC50 (unbound plasma concentration)

SMILES	EC50 (MES-induced seizures [1]; [12])	EC50 (MES-induced seizures [1]; [13])	EC50 (MES-induced seizures [1]; [14])	EC50 (MES-induced seizures [2]; [15])	EC50 (MES-induced seizures [2]; [16])	EC50 (MES-induced seizures [2]; [17])	Kp (in vivo [3]; in vivo)	Kp (in vivo [4]; in vivo)	PPB (% bound) [5]	ED50 (MES-induced seizures [6])	PPB (% bound) [8]	Effective plasma concentration [9]	Cp,u (unbound therapeutic plasma concentration) [9]	EC50 (MES-induced seizures [2]; [18])	EC50 (MES-induced seizures [2]; [19])	ED50 (MES-induced seizures [2]; rat MES)	EC50 (MES-induced seizures [2]; [20])	Kp (in vivo [3]; brain and plasma, oral)	Kp (in vivo [4]; brain and plasma, oral)	PPB (% bound) [10]	further results
NC(=O)O[C@@H](Cn1ncnn1)c1ccccc1Cl [CNB, cenobamate]	24.9 µM	66 µM	40.1 µM	8.93 µM	10.7 µM	15.9 µM	0.38	0.67	46.1 % bound	7.05 mg/kg	60.0 % bound	89.3 to 170 µM	35.7 to 68.0 µM	–	–	–	–	–	–	–	Doses giving significant reduction of MES-induced seizures (fraction seizing) (MES-induced seizures [2]; rat MES, vs vehicle, Kruskal-Wallis/Dunn): 18 mg/kg; PPB (% bound) ([7]; published data ref 35): 43.2 % bound
NC(=O)N1c2ccccc2C=Cc2ccccc21 [CBZ, carbamazepine]	32.5 µM	13.8 µM	7.04 µM	–	–	–	–	–	63.9 % bound	9.67 mg/kg	75.0 % bound	17 to 51 µM	4.25 to 12.8 µM	4.7 µM	4.55 µM	4.39 mg/kg	1.63 µM	2.36	1.03	52.4 % bound	–
CCOC(=O)Nc1ccc(NCc2ccc(F)cc2)cc1N [RTG, retigabine]	–	2.26 µM	0.52 µM	0.2 µM	–	1.46 µM	–	–	85.1 % bound	–	80.0 % bound	1.98 to 3.99 µM	–	–	–	–	–	–	–	86.2 % bound	–
CCCC(CCC)C(=O)O [VPA, valproic acid]	–	1670 µM	1640 µM	647 µM	307 µM	1310 µM	–	–	–	196 mg/kg	90.0 % bound	346 to 693 µM	34.6 to 69.3 µM	–	–	–	–	0.38	0.24	–	EC50 (MES-induced seizures [1]; Mus musculus, read-out: EC50 Brain): 630 µM; PPB (% bound) [11]: 66.5 % bound; PPB (% bound) ([7]; published data ref 34): 12.0 % bound
O=C1NC(=O)C(c2ccccc2)(c2ccccc2)N1 [PHT, phenytoin]	30.6 µM	27.6 µM	5.37 µM	–	–	–	–	–	80.6 % bound	9.81 mg/kg	90.0 % bound	40 to 79 µM	4.00 to 7.90 µM	2.66 µM	3.2 µM	16.9 mg/kg	0.89 µM	1.11	0.83	80.3 % bound	–
COC[C@@H](NC(C)=O)C(=O)NCc1ccccc1 [LSM, lacosamide]	14.8 µM	19.3 µM	15.6 µM	22.2 µM	12.2 µM	24.9 µM	0.77	0.49	22.9 % bound	15.2 mg/kg	13.4 % bound	–	–	–	–	–	–	–	–	21.8 % bound	–
